Results on one molecule are retold here after patent US20240174684A1, “INHIBITORS OF cGAS ACTIVITY AS THERAPEUTIC AGENTS” (BELLBROOK LABS, LLC, priority 2021, published 2024).

SMILES strings stand for the structures. Entries after “also recorded” stand apart in the source; their conditions may differ. Like-named read-outs stand apart in the source and are kept apart here.

For one data set, the target named is cGAS (Homo sapiens, UniProt Q8N884). Briefly: Cellular thermal shift assay (CETSA) in THP-1 cells. The conditions noted are these: heat treatment 51.5 °C. The data set is classed as cell-based. The protocol:
Panel A is an image of a western blot of the stabilization measure; panel B is a bar graph of the stabilization measure. Heat treatment was conducted at 51.5 ° C.
CETSA was also used to confirm that the compounds are binding to cGAS in cells; THP-1 cells are used for this analysis. Compounds were tested in dose response mode by incubating with cells for 1.5 hours at 37° C., followed by pelleting and re-suspending in PBS, heating to 51.5° C. for 3 min and cooling to room temp. Cells were then lysed, debris, including denatured cGAS, was pelleted and the supernatant was analyzed for soluble cGAS by Western Blot using anti-cGAS primary Ab (Cell Signaling). Band intensity was analyzed using Image J software. Stimulation with cGAMP directly activates STING, circumventing cGAS; this was used to determine if compounds had effects on downstream components of cGAS/STING signaling. The IFN-6 ELISA was used as the primary measure of cellular potency and selectivity (Table 3) and used the reporter gene assays for assessing off-target activity with other pattern recognition receptors.

Data set [1] is described as follows: Pharmacokinetics in C57BL/6 female mice, IV and PO. The data set is classed as in vivo. The conditions noted are these: plasma; for AUC: read-out: AUC0-tidc. On the procedure:
The pharmacokinetic characteristics of Compound 5 (BBL-100455) were estimated in C57BL/6 female mice following intravenous (IV) bolus and oral (PO) administration.
In short, the compound of the disclosure at 0.6 mg/mL in PBS containing 5% MSO and 25% PEG-400 was administered by IV injection (3 mg/kg). For PO (30 mg/kg), the compound of the disclosure at 3 mg/mL in PBS containing 10% MSO and 50% PEG-400 was orally administered. At the given time points (0.083 h, 0.167 h, 0.25 h, 0.50 h 1 h, 2 h, 4 h, 7 h, 16 h and 24 h), blood samples were collected using heparinized calibrated pipettes. Samples were centrifuged at 15000 rpm for 10 min. Subsequently, blood plasma was collected from the upper layer. The plasma was frozen at −80° C. for later analysis. At 2 h. 7 h and 24 h, brain samples were collected and immediately stored at […] for later analysis.
The analytical curve was constructed using ten non-zero standards with Compound 5 (BBL-100455) concentration ranging from 1 to 2500 ng/ml in the blank plasma and brain tissue. A blank sample (matrix sample processed without internal standard) was used to exclude contamination. The linear regression analysis of BBL- 100455 was performed by plotting the peak area ratio (y) against the BBL-100455 concentrations (x) in ng/ml.
The individual and average compound 5 concentration-time data for IV and PO dosed groups are presented in FIG. 4 for plasma concentration. All PK parameters were estimated using non-compartmental analyses with Phoenix/WINONLIN.

The test system of data set [2] is IFNβ production in THP-1 cells. Kind of data set: IFNβ ELISA in THP-1 cells. The data set is classed as cell-based, human. Summed up: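 THP-1 cells stimulated with dsDNA or cGAMP (STING activation bypassing cGAS) in the presence of compound; IFNβ secreted into medium quantified by ELISA. IC50 values reported in potency bins.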
For orientation: In an ELISA, binding on a coated surface is turned into a signal by an enzyme label.

Data set [3] deals with IFN-β production in PBMCs. Briefly: IFNβ ELISA in human primary PBMCs. In kind it is cell-based. The conditions noted are these: PBMC. Summed up: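 Human primary PBMCs stimulated with dsDNA or cGAMP to trigger a cGAS/STING-dependent type I IFN response. Secreted IFNβ quantified by ELISA across a dose response to derive IC50 values.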
The test system of another data set is MDR1 (P-glycoprotein). Kind of data set: MDCK-MDR1 permeability A→B. The conditions noted are these: dog; MDCK cells expressing human MDR1, A→B; read-out: MDCK-MDR Permeability A→B. The data set is classed as in vitro ADME, Canine. In a few lines:
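Permeability measured apical-to-basolateral in MDCK cells expressing human MDR1, reported as binned ranges in cm/s×10^−6. Metabolic stability determined as half-life in mouse and human hepatocytes, reported as binned ranges in minutes.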

The mark [4] stands for this setting: mouse, IV 3 mg/kg, C57BL/6 female mice.
Setting [5] is: mouse, PO 30 mg/kg, C57BL/6 female mice.

Sequence of cGAS (Q8N884 whole entry): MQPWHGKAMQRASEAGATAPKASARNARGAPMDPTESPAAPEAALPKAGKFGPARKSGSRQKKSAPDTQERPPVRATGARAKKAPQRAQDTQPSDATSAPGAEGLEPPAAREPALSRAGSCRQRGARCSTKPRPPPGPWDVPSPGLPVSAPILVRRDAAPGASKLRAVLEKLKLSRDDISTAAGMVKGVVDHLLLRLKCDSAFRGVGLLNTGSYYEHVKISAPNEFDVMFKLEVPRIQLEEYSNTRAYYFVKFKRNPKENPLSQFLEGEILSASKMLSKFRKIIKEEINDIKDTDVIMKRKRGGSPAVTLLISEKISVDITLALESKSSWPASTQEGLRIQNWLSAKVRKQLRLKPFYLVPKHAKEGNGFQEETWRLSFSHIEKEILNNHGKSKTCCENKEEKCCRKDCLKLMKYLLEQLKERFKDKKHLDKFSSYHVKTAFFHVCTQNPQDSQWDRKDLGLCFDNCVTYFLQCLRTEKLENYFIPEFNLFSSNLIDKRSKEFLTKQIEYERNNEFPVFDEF

The bioavailability is the share of a dose that reaches the circulation, judged against a reference dose that is usually intravenous. The AUC(0-inf) is total exposure, with the tail of the curve extrapolated. Lower therefore signals less exposure. The term half-life denotes the time needed for the level to fall by half in the phase considered. A high value points to slow loss. As a reminder, the CL/F is the apparent clearance, not corrected for the fraction that reaches the circulation. One may read the Cmax as the highest concentration seen after dosing. In general, Tmax refers to the time from dosing to the highest level. By IC50 is commonly meant the midpoint of a concentration-inhibition curve. The low end stands for greater potency, the high end for weaker potency. On to `Cc1nc(N2C[C@@H](CC(=O)Nc3ccc(-c4ccccc4)cc3)C[C@H]2C(=O)O)c2oc3ccccc3c2n1` [Compound 5, (2S,4R)-4-(2-([1,1′-biphenyl]-4-ylamino)-2-oxoethyl)-1-(2-methylbenzofuro[3,2-d]pyrimidin-4-yl)pyrrolidine-2-carboxylic acid], for which the “Stabilization of cGAS in cells (CETSA)” value at cGAS is given as “dose dependent stabilization; also recorded: intracellular target engagement”. In data set [1] (IV 3 mg/kg, C57BL/6 female mice), this molecule registered a Vss of 0.853 L/kg. Further, the bioavailability in data set [1] (female, C57BL/6, mouse, PO 30 mg/kg vs IV 3 mg/kg, bioavailability) was 29.3%. In data set [1] (setting [4]), the AUC(0-inf) worked out at 4.86 µg·h/mL, the clearance is 0.618 L/h/kg, the half-life was 2.3 h and the AUC turned out to be 4.63 µg·h/mL. Besides, in data set [1] (setting [5]), the AUC(0-inf) was 13.6 µg·h/mL, the CL/F is 2.21 L/h/kg, the highest level (Cmax) was 2.87 µg/mL and the time to peak (Tmax) stood at 0.5 h. Moreover, in data set [1] (setting [5]), the half-life is 2.25 h and the AUC was 13.6 µg·h/mL. Further, the IC50 in data set [2] (Homo sapiens, THP-1 cells) was < 1 µM. Moreover, the “Cellular IC50 relative to biochemical IC50” value in data set [2] (cellular assays vs cGAS enzymatic assay at 1 mM ATP/GTP) is “essentially identical”. The half-maximal inhibitory concentration (IC50) in data set [3] fell in the range of 1 to 2.5 µM. Further, in the data set with MDR1 (P-glycoprotein), the Papp A→B lay within 50 to 100 nm/s.
